Test results: patent US9835614B2, “Measurement of cell growth and drug susceptibility by resonant mass measurement” (Affinity Biosensors, LLC, priority 2013, dated 2017)

Tested on: E. coli
Assay: Resonant mass measurement of growth of E. coli cultures with antibiotics
Type: cell-based

## CC1(C)S[C@@H]2[C@H](NC(=O)[C@H](N)c3ccccc3)C(=O)N2[C@H]1C(=O)O [ampicillin]
E. coli in nutrient broth containing 64 μg/ml, cultures measured cyclically via selection valve
  time development of mass and number of microbes in culture (FIG. 4): grow robustly
E. coli, 64 μg/ml, concentration calculated in each time interval
  microbe number concentration growth curve (number of microbes per ml, FIG. 5(a)): begins at about one hour
At the measured concentration (64 μg/ml)
  diagnostic susceptibility of the E. coli strain: resistant
